Values of other authors as cited in patent US20070160647A1, “Materials for medical implants and occlusive devices” (Clarity Corporation, priority 2004, published 2007).

Oc1cc(Cl)ccc1Oc1ccc(Cl)cc1Cl [triclosan]
solubility in DMSO and alcohols: highly soluble | solubility in water: insoluble
